For assay [1], the target named is Glutamate NMDA receptor. Put plainly: Inhibition of [3H]MK-801 binding to NMDA receptor of adult Wistar rat brain cortical membranes: Range 50-500. The class given is cell membranes, Membrane.
Assay [2] addresses Glutamate NMDA receptor. Kind of assay: Inhibition of [3H]MK-801 binding to NMDA receptor of adult Wistar rat brain cortical membranes. The class given is cell membranes, Membrane.
The species named for assay [3] is Rattus norvegicus. Put plainly: Percent inhibition of delayed neural death at concentration of 50 uM induced by glutamate and glycine in neocortical neurons of Wistar rat fetus. The class given is functional.
The species entered for assay [4] is Rattus norvegicus. Put plainly: Percent inhibition of delayed neural death at concentration of 500 uM induced by glutamate and glycine in neocortical neurons of Wistar rat fetus. The class given is functional.

Here are results for 2 compounds from ChEMBL document CHEMBL1137027, “Stereoselective synthesis and preliminary evaluation of new D-3-heteroarylcarbonylalanines as ligands of the NMDA receptor” (Bioorg Med Chem Lett, 2004).

A word on the IC50: it is the midpoint of a concentration-inhibition curve. The low end stands for higher potency, the high end for lower potency. In general, Inhibition refers to the drop in the measured response relative to a control, in per cent.

In turn, `N[C@H](CC(=O)c1cccs1)C(=O)O` gave an IC50 at Glutamate NMDA receptor [1] of less than 500 µM.

For `N[C@H](CC(=O)c1ccccn1)C(=O)O`, the IC50 on Glutamate NMDA receptor [2] is approximately 300 µM. For the same compound, the values for the Inhibition in the assay filed under Rattus norvegicus [3] and in the assay filed under Rattus norvegicus [4] were 18.4% and 60.3%, respectively.
